Patent US5198419A, “Formulated medicines for enhancing the efficacy of beta-lactam antibiotics in prophylaxis and treatment against infectious disease due to pathogenic bacteria” (Immuno Japan Inc., priority 1989, dated 1993)

Legend:
[1] = test system: Staphylococcus aureus 209P; assay: Example 9: time-schedule of lactoferrin administration and efficacy of amoxicillin; assay type: in vivo, mice, ddY
Experimental: (§1) For ED50 values, a range of amounts of antibiotics is given in the examples (e.g., penicillin G: 0.4, 0.2, 0.1, 0.05 mg/mouse). To calculate the ED50, groups of mice in the monotherapy groups and groups of mice in the combined therapy groups received the indicated amount of antibiotic (e.g., one group received 0.4 mg/mouse of penicillin G, one group received 0.2 mg/mouse of penicillin G, one group received 0.1 mg/mouse of penicillin G, one group received 0.05 mg/mouse of penicillin G).
The effect of time-schedule of lactoferrin administration on the potentiation of antibiotic efficacy was examined using an experimental model similar to Example 1. Male ddY mice (n=10), five weeks old, weighing an average of 21.9 g, were used in this experiment. On day 0 all the mice were intraperitoneally injected with 1.2×10^5 CFU/mouse of Staphylococcus aureus 209P. Amoxicillin ([…], 0.625 mg/mouse) was orally given one hour after the injection.

[2] = test system: Escherichia coli #11; assay: Example 7: experimental infection in mice, cephalexin with or without native lactoferrin; assay type: in vivo, strain ddY; details: po, 168 h, 1.7 × 10^6 CFU/mouse
Experimental: as §1
Male mice, strain ddY, five weeks old, were randomly allocated into groups (n=10), and were intraperitoneally injected with Proteus mirabilis GN79 (1.3×10^6 CFU/mouse) or with Escherichia coli #11 (1.7×10^6 CFU/mouse) or with Klebsiella pneumoniae 3K25 (1.5×10^6 CFU/mouse). The doses are 1,000 times greater than the minimum lethal dose. Immediately after the injection, the first eight groups were orally given ampicillin, the second eight groups were orally given cephalexin, and the third eight groups were orally given cefaclor, respectively, each simultaneously with or without native lactoferrin (1 mg/mouse) in 0.2 ml of distilled water (see Table 7). All the mice were fed ad libitum and observed for one week under the same conditions as described in Example 1.

[3] = test system: Klebsiella pneumoniae 3K25; assay: Example 7: experimental infection in mice, cefaclor with or without native lactoferrin; assay type: in vivo, strain ddY; details: Klebsiella pneumoniae, 3K25, po, 168 h, 1.5 × 10^6 CFU/mouse
[4] = test system: bacteria in urine; assay: Example 11: patients with chronic urinary tract infection, cefaclor with or without apolactoferrin; assay type: in vivo, human patients; details: four weeks
Experimental: Seventeen patients (male 6, female 11, an average 63.5 years old) with chronic urinary tract infection were randomly allocated into two groups. All these patients excreted at least one species of bacteria in their urine for longer than four weeks, although they were treated orally with antibacterial agents. The first group (n=9) was treated for four weeks with 1,200 mg of cefaclor (400 mg, three times a day) and the second group (n=8) with the same dose of cefaclor (three times a day) combined with 600 mg of apolactoferrin (200 mg, three times a day). Urine specimens were collected every one week and the species of bacteria were identified and the quantity of excreted bacteria determined.

[5] = test system: Klebsiella pneumoniae strain 3K25; assay: Example 3: experimental infection in mice, cefaclor with or without hololactoferrin; assay type: in vivo, strain ICR; details: p.o. 1 h after 1×10^6 CFU/mouse
Experimental: as §1
Sixty male mice, strain ICR, five weeks of age, weighing 21.3±1.5 g (mean±the standard deviation) were randomly allocated into ten groups (n=6), and intraperitoneally injected with Klebsiella pneumoniae strain 3K25, 1×10^6 CFU/mouse. One hour after the injection, the first group was orally given 0.2 ml of physiological saline, the second group orally given hololactoferrin (100% ferric ion saturated lactoferrin, 0.4 mg/mouse), the third through the sixth groups orally given cefaclor (2.0, 1.0, 0.5 and 0.25 mg/mouse each) in 0.2 ml of saline, and the seventh through the tenth groups orally given cefaclor (2.0, 1.0, 0.5 and 0.25 mg/mouse each) and hololactoferrin (100% iron saturated lactoferrin, 0.4 mg/mouse) in 0.2 ml of saline. The mice were fed ad libitum and observed for one week under the same conditions as described in Example 1.

[6] = test system: Streptococcus pyogenes #59; assay: Example 10: experimental infection in mice, penicillin G with or without lactoferrin; assay type: in vivo; details: for ED50: 1000 MLD i.p.
Experimental: as §1
(§2) The potentiation of antibiotic efficacy by lactoferrin was examined using an infection model similar to Example 1. The antibiotics and lactoferrin were administered immediately after the injection (see Table 8). […] Lactoferrin (0.4 mg/mouse) potentiates the efficacies of the four beta-lactam antibiotics used: penicillin G against Streptococcus pyogenes infection was potentiated by 4.6 fold, cefazolin against S. epidermidis by 3.1 fold, methicillin against Diplococcus pneumoniae by 3.7 fold, and cloxacillin against Pseudomonas aeruginosa by 3.0 fold. Therefore, lactoferrin potentiates the efficacy of beta-lactam antibiotics against diseases caused by both gram-positive and gram-negative pathogenic bacteria.

[7] = test system: Diplococcus pneumoniae Ch; assay: Example 10: experimental infection in mice, methicillin with or without lactoferrin; assay type: in vivo; details: for ED50: 100 MLD i.p.
Experimental: as §1, §2

[8] = test system: Pseudomonas aeruginosa E8; assay: Example 10: experimental infection in mice, cloxacillin with or without lactoferrin; assay type: in vivo; details: for ED50: 10 MLD i.p.
Experimental: as §1, §2

[9] = test system: Str. epidermids FT; assay: Example 10: experimental infection in mice, cefazolin with or without lactoferrin; assay type: in vivo; details: for ED50: 1000 MLD i.p.
Experimental: as §1, §2

[10] = test system: Klebsiella pneumoniae strain 3K25; assay: Example 1: experimental infection in mice, cefpodoxime with or without native lactoferrin; assay type: in vivo, strain ICR
Experimental: as §1
Sixty male mice, strain ICR, four weeks of age, body weight 19±1.0 g (mean±the standard deviation) were randomly divided into ten groups (n=6); the first group was assigned to the untreated control, the second group to the lactoferrin treated control group, the third through the sixth groups to the cephalosporin treated controls, and the seventh through the tenth groups to the combined treatment group of cephalosporin and lactoferrin. The mice were intraperitoneally injected with pneumobacillus, Klebsiella pneumoniae strain 3K25, 5×10^6 colony forming units (CFU) per mouse. The antibiotics used were orally active cephalosporin or cefpodoxime, and the bovine lactoferrin was the native one derived from cheese whey with 28.5% iron-saturation. One hour after the injection, the untreated control was orally given 0.2 ml of physiological saline, the second group orally given lactoferrin (0.4 mg/mouse), the third through the sixth groups were orally given cefpodoxime (10, 5, 2.5 and 1.25 mg/mouse) in 0.2 ml of physiological saline, the seventh through the tenth groups orally given the admixture of cefpodoxime (5, 2.5, 1.25, and 0.625 mg/mouse) together with lactoferrin (0.4 mg/mouse) in 0.2 ml of the saline. All the mice were housed in an animal room, allowed free access to commercial pellet diet and water, and observed for one week.

[11] = test system: Klebsiella pneumoniae strain 3K25; assay: Example 5: experimentally infected fed and fasted mice, cefpodoxime with or without native lactoferrin; assay type: in vivo, strain ICR
Experimental: as §1
Male mice, strain ICR, five weeks old, weighing an average of 21.6 g, were randomly allocated into sixteen groups (n =6). During the next 24 hours, eight groups were allowed free access to diet and water, while the other eight groups were fasted overnight. On the next day, all the mice were injected with 1.4×10^6 CFU/mouse of Klebsiella pneumoniae strain 3K25. The minimal lethal dose of this bacterium is […], and thus the injected dose was 1,000 times greater than the minimal lethal dose. Immediately after the injection, the fed groups were orally given cefpodoxime (10, 5, 2.5, and 1.25 mg/mouse) simultaneously with or without native lactoferrin (0.2 mg/mouse). The fasted groups also were orally given cefpodoxime (10, 5, 2.5, and 1.25 mg/mouse) simultaneously with or without native lactoferrin (0.2 mg/mouse).

[12] = test system: Klebsiella pneumoniae strain 3K25; assay: Example 8: dose-response relationship of potentiation of cefpodoxime efficacy by oral lactoferrin; assay type: in vivo, mice, ddY
Experimental: as §1
The dose-response relationship of the potentiation of the antibiotic efficacy by lactoferrin was determined using the same experimental infection system as described in Example 1. Male ddY mice, five weeks of age, weighing approximate 20.3 g, were randomly allocated into groups (n=10); the first group was assigned to the cefpodoxime control (5 mg/mouse). The mice were intraperitoneally injected with pneumobacillus, Klebsiella pneumoniae strain 3K25, 3×10^5 per mouse. One hour after the injection, the antibiotic cefpodoxime (1, 0.5, 0.25 and 0.125 mg/mouse) was orally given in 0.2 ml of physiological saline.

[13] = test system: Klebsiella pneumoniae strain 3K25; assay: Example 2: experimental infection in mice, cefpodoxime with or without apolactoferrin; assay type: in vivo, strain ICR; details: for ED50: p.o. 1 h after 5×10^5 CFU/mouse
Experimental: as §1
Sixty male mice, strain ICR, five weeks of age, weighing 19.3±1.1 g (mean body weight±the standard deviation) were randomly allocated into ten groups (n=6), and intraperitoneally injected with pneumobacilli, Klebsiella pneumoniae strain 3K25, 5×10^5 CFU/mouse. One hour after the injection, the first group was orally given 0.2 ml of physiological saline, the second group orally given iron free apolactoferrin (0.4 mg) in 0.2 ml of saline, the third through the sixth groups were orally given cefpodoxime (4, 2, 1, and 0.5 mg/mouse) in 0.2 ml saline, and the seventh through the tenth groups orally given the admixture of cefpodoxime (4, 2, 1, and 0.5 mg/mouse) and apolactoferrin (0.4 mg) in 0.2 ml of saline. Mice were fed ad libitum and observed for a week under the same conditions as described in Example 1.

[14] = penicillin G with lactoferrin (0.4 mg/mouse)
[15] = methicillin with lactoferrin (0.4 mg/mouse)
[16] = cloxacillin with lactoferrin (0.4 mg/mouse)
[17] = cefazolin with lactoferrin (0.4 mg/mouse)

SMILES: CC1(C)S[C@@H]2[C@H](NC(=O)[C@H](N)c3ccc(O)cc3)C(=O)N2[C@H]1C(=O)O [amoxicillin]
- ED50 ([1]; amoxicillin control, no lactoferrin): 2.46 mg/mouse
- ED50 ([1]; amoxicillin, lactoferrin (0.5 mg/mouse) dosed +3 (hr)): 0.78 mg/mouse
- ED50 ([1]; amoxicillin, lactoferrin (0.5 mg/mouse) dosed +12 (hr)): 2.48 mg/mouse
- ED50 ([1]; amoxicillin, lactoferrin (0.5 mg/mouse) dosed -1 (day)): 1.39 mg/mouse
- ED50 ([1]; amoxicillin, lactoferrin (0.5 mg/mouse) dosed -2 (day)): 2.46 mg/mouse
- ED50 ([1]; amoxicillin, lactoferrin (0.5 mg/mouse) dosed -3 (day)): 2.46 mg/mouse
- ED50 ([1]; amoxicillin, lactoferrin (0.5 mg/mouse) dosed -5 (day)): 2.14 mg/mouse
- ED50 ([1]; amoxicillin, lactoferrin (0.5 mg/mouse) dosed -6 (hr)): 0.40 mg/mouse
- ED50 ([1]; amoxicillin, lactoferrin (0.5 mg/mouse) dosed -12 (hr)): 0.55 mg/mouse
- ED50 ([1]; amoxicillin, lactoferrin (0.5 mg/mouse) dosed at 0): 0.40 mg/mouse

SMILES: CC1=C(C(=O)O)N2C(=O)[C@@H](NC(=O)[C@H](N)c3ccccc3)[C@H]2SC1 [cephalexin]
- ED50 ([2]; cephalexin alone): 216 mg/kg
- ED50 ([2]; cephalexin with lactoferrin (1 mg/mouse)): 34.8 mg/kg

SMILES: N[C@@H](C(=O)N[C@@H]1C(=O)N2C(C(=O)O)=C(Cl)CS[C@H]12)c1ccccc1 [cefaclor]
- ED50 ([3]; cefaclor alone): 28.5 mg/kg
- ED50 ([3]; cefaclor with lactoferrin (1 mg/mouse)): 10 mg/kg
- bacteria in the urine ([4]; cefaclor 1,200 mg combined with 600 mg apolactoferrin daily): bacteria were no longer detected in the urine
- patients still excreting bacteria ([4]; cefaclor monotherapy 1,200 mg daily): six patients out of nine
- efficacy of combined therapy versus monotherapy ([4]; cefaclor with apolactoferrin): significantly more effective
- ED50 ([5]; cefaclor combined therapy with hololactoferrin (0.4 mg/mouse)): 0.30 mg/mouse
- ED50 ([5]; cefaclor monotherapy): 0.63 mg/mouse

SMILES: CC1(C)S[C@@H]2[C@H](NC(=O)Cc3ccccc3)C(=O)N2[C@H]1C(=O)O [penicillin G]
- ED50 ([6]; penicillin G control): 0.106 mg/mouse
- potentiation of efficacy by lactoferrin [6, 14]: 4.6 fold
- ED50 [6, 14]: 0.023 mg/mouse

SMILES: COc1cccc(OC)c1C(=O)N[C@@H]1C(=O)N2[C@@H]1SC(C)(C)[C@@H]2C(=O)O [methicillin]
- ED50 ([7]; methicillin control): 0.227 mg/mouse
- potentiation of efficacy by lactoferrin [7, 15]: 3.7 fold
- ED50 [7, 15]: 0.061 mg/mouse

SMILES: Cc1onc(-c2ccccc2Cl)c1C(=O)N[C@@H]1C(=O)N2[C@@H]1SC(C)(C)[C@@H]2C(=O)O [cloxacillin]
- ED50 ([8]; cloxacillin control): 3.16 mg/mouse
- potentiation of efficacy by lactoferrin [8, 16]: 3.0 fold
- ED50 [8, 16]: 1.06 mg/mouse

SMILES: Cc1nnc(SCC2=C(C(=O)O)N3C(=O)[C@@H](NC(=O)Cn4cnnn4)[C@H]3SC2)s1 [cefazolin]
- ED50 ([9]; cefazolin control): 0.152 mg/mouse
- potentiation of efficacy by lactoferrin [9, 17]: 3.1 fold
- ED50 [9, 17]: 0.048 mg/mouse

SMILES: COCC1=C(C(=O)O)N2C(=O)[C@@H](NC(=O)/C(=N\OC)c3csc(N)n3)[C@H]2SC1 [cefpodoxime]
- ED50 ([10]; cefpodoxime alone, p.o. 1 h after i.p. injection of 5×10^6 CFU/mouse, 95% range not named (6.3-10.0 mg/mouse printed)): 7.93 mg/mouse
- life span versus untreated and lactoferrin controls ([10]; cefpodoxime treated group): significantly prolonged
- ED50 ([10]; cefpodoxime with native lactoferrin (0.4 mg/mouse), p.o. 1 h after injection of 5×10^6 CFU/mouse, range 0.92-1.70 mg/mouse printed): 1.25 mg/mouse
- life span versus untreated and lactoferrin controls ([10]; combined treatment groups of cefpodoxime and lactoferrin): significantly prolonged
- ED50 ([11]; fasted, cefpodoxime (antibiotic) alone): 39.40 (27.15-56.15) mg/mouse
- ED50 ([11]; fasted, cefpodoxime admixture with lactoferrin (0.2 mg/mouse)): 7.80 (5.65-10.83) mg/mouse
- ED50 ([11]; fed, cefpodoxime (antibiotic) alone): 15.65 (11.45-21.30) mg/mouse
- ED50 ([11]; fed, cefpodoxime admixture with lactoferrin (0.2 mg/mouse)): 4.90 (3.65-6.60) mg/mouse
- ED50 ([12]; cefpodoxime with lactoferrin 0.00 mg/mouse): 0.473 mg/mouse
- ED50 ([12]; cefpodoxime with lactoferrin 0.005 mg/mouse): 0.382 mg/mouse
- ED50 ([12]; cefpodoxime with lactoferrin 0.05 mg/mouse): 0.104 mg/mouse
- ED50 ([12]; cefpodoxime with lactoferrin 0.5 mg/mouse): 0.104 mg/mouse
- ED50 ([12]; cefpodoxime with lactoferrin 5.0 mg/mouse): 0.104 mg/mouse
- ED50 ([12]; cefpodoxime with lactoferrin 50.0 mg/mouse): 0.104 mg/mouse
- ED50 ([13]; cefpodoxime combined therapy with apolactoferrin (0.4 mg), range 0.19-0.33 mg printed): 0.25 mg/mouse
- ED50 ([13]; cefpodoxime monotherapy, range 0.74-1.32 mg/mouse printed): 0.99 mg/mouse
- recovery of mice ([13]; cefpodoxime with apolactoferrin, combined therapy group): all the mice recovered
